Laboratory results published in US9572807B2, “Protocols for treatment of major depressive disorder (MDD)” (NEURALSTEM, INC., priority 2014, dated 2017).

Tested on: patients with symptomatic MDD
Test: qEEG pharmacodynamic measurement
Type: in vivo, human
Settings: pre vs 6 hours post-dose on Day 14 and Day 28; prominent in left posterior temporal and parietal regions; lower HFα with placebo
Method: A double-blind, placebo-controlled, multiple-ascending-dose study employing the compound of formula (1) was performed in patients with symptomatic MDD. Twenty-four subjects were recruited, with their diagnosis and illness severity confirmed through an independent, remote SAFER interview (Targum, S. D., et al., CNS Neurosci. Ther. (2008) 14:2-9) from the Massachusetts General Hospital (MGH) Clinical Trials Network and Institute (CTNI) raters. Each patient underwent a screening for eligibility (Day −37 to Day −6 or −3) and eligible patients were admitted into the unit on Day −5 to complete their wash-out and be reconfirmed for eligibility and for baseline assessments. The patients received daily dosing of formula (1) or placebo for 28 days starting on Day 1 and were followed for safety, pharmacokinetics (PK) and pharmacodynamics (PD) until discharge. […]
In addition to safety, pharmacokinetic and the behavioral ratings scales described in Example 2, qEEG measurements were obtained 6 hours post-dose on Days 14 and 28 for 20 minutes at rest. EEGs were recorded using 19-standard International 10/20 System scalp locations plus electromyography (EMG) and eye movement monitoring. Digital EEGs recorded using Cadwell Laboratories instrumentation, were reviewed to identify the presence of physiological and instrumentation prior to analyses. […]

Question: How did the “qEEG high frequency α (HFα), amplitude and coherence measures” value turn out when `CC(C)CCNc1ncccc1C(=O)N1CCN(Cc2ccccc2)CC1` [formula (1)] was run?
Answer: increased HFα
